{
  "source": "patent US9066516B2",
  "about": "“Uses of thaxtomin and thaxtomin compositions as herbicides” (priority 2008, dated 2015)",
  "format_in_all_cases": "in vivo",
  "key": {"broad-leaf mustard": {"system": "broad-leaf mustard", "experiment": "Greenhouse synergy test MBI-005 + commercial herbicides (Example 11)", "settings": "cyhalofop 0.051 mg/mL, 14 days", "description": "(§1) The test species barnyard grass, ragweed, sedge, and broad-leaf mustard were used for the valuation of synergy between MBI-005 and the rice herbicides clomazone, penoxsulam, cyhalofop, fenoxaprop-p-ethyl, bispyribac-sodium, thiobencarb, and propanil.\n(§2) There were 3 replicates per treatment which were sprayed with approximately ⅔ ml per replicate. The treatments were completely randomized and kept in a greenhouse at 25° C. The efficacy was rated at 7 and 14 days post treatment."}, "sedge": {"system": "sedge", "experiment": "Greenhouse synergy test MBI-005 + commercial herbicides (Example 11)", "settings": "cyhalofop 1.176 mg/mL, 14 days", "description": "as §1, §2"}, "smallflower sedge": {"system": "smallflower sedge", "experiment": "Greenhouse test cyhalofop + thaxtomin A (Example 7)", "settings": "Cyhalofop 6.5 oz/acre, no thx A, 21-day evaluation", "description": "(§3) Cyhalofop (2-[4-(4-cyano-2-fluorophenoxy)phenoxy]propanoic acid, butyl ester) is also mixed together with adjuvant containing ethyl oleate, polyethylene dialky ester and ethoxylated nonylphenol (2.5% v/v) and increasing concentrations of thaxtomin A (purified from the ATCC strain 49003) at concentrations 0.1, 0.2 and 0.4 mg/ml. The concentrations of the 2-[4-(4-cyano-fluorophenoxy)phenoxy]propanoic acid, butyl ester before dilution are 29.6% (2.38 lb/gal) and 21.7% (2 lb/gal), respectively. The effect of these mixtures on the growth of common water plantain, red stem, smallflower sedge and sprangletop is determined in the greenhouse. Similarly, rice plants of variety M104 are grown and tested for phytotoxic effects, and all plants are evaluated 7, 14, and 21 days after treatment."}, "common water plantain": {"system": "common water plantain", "experiment": "Greenhouse test cyhalofop + thaxtomin A (Example 7)", "settings": "Cyhalofop 6.5 oz/acre, no thx A; 21-day evaluation", "description": "as §3"}, "red stem": {"system": "red stem", "experiment": "Greenhouse test cyhalofop + thaxtomin A (Example 7)", "settings": "Cyhalofop 6.5 oz/acre, no thx A; 21-day evaluation", "description": "as §3"}, "sprangletop": {"system": "sprangletop", "experiment": "Greenhouse test cyhalofop + thaxtomin A (Example 7)", "settings": "Cyhalofop 6.5 oz/acre, no thx A, 21-day evaluation", "description": "as §3"}},
  "data": [
    {"molecule": "CCCCOC(=O)C(C)Oc1ccc(Oc2ccc(C#N)cc2F)cc1", "note": "(centres unmarked) [Cyhalofop, 2-[4-(4-cyano-2-fluorophenoxy)phenoxy]propanoic acid, butyl ester]", "values": [
      {"measurement": "% Control Product", "setting": "broad-leaf mustard", "result": 11.7, "unit": "%"},
      {"measurement": "% Control Product", "setting": "sedge", "result": 3.3, "unit": "%"},
      {"measurement": "Sedge % control", "setting": "smallflower sedge", "result": 0, "unit": "%"},
      {"measurement": "Sedge % control", "setting": "smallflower sedge; listed as Clincher CA", "result": "poor on sedges"},
      {"measurement": "Waterplantain % control", "setting": "common water plantain", "result": 8, "unit": "%"},
      {"measurement": "Redstem % control", "setting": "red stem", "result": 75, "unit": "%"},
      {"measurement": "Sprangletop % control", "setting": "sprangletop", "result": 90, "unit": "%"},
      {"measurement": "Sprangletop % control", "setting": "sprangletop; listed as Clincher CA", "result": "good efficacy against grass weeds"}
    ]}
  ]
}
